Like-named read-outs stand apart in the source and are kept apart here.
How the values were obtained:
PRPF40A Mut N-ExtWW12 = molecular target: T1, PRPF40A Mut N-ExtWW12 (Homo sapiens, UniProt O75400, L125A/P123A/P126A/P127A/P78A/P79A/P81A/V80A); experiment: ITC of mutant N-ext-WW12 (PPVP/PALPP motifs changed to alanine) with SF1WWbs; type: binding
T1 construct: WW12long 141–248, and N-ext-WW12 56–236; 6xHis-TEV site (N, cleaved yes); made in house; host or cells: Escherichia coli BL21(DE3)
T1 sequence (O75400 56-236 P78A/P79A/V80A/P81A/P123A/L125A/P126A/P127A limits assumed): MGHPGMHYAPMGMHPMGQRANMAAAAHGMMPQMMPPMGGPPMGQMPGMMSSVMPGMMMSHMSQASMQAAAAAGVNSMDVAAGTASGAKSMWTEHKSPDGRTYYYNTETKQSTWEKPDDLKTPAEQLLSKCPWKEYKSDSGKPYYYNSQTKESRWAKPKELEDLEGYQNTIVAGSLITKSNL
From the text: While only partial backbone chemical shift assignments of this construct (69% completeness), N-ext-WW12, could be possible due to a highly repetitive sequence, a complete assignment of the methyl groups was achieved. We then performed a titration with the high-affinity peptide, SF1WWbs, by NMR. […] To further support this conclusion, we prepared a mutant version of the N-ext-WW12 construct, changing these two motifs to alanine residues, and observed clear shifting of NMR signals towards the free WW12 spectrum in the short version of the tandem. This corroborates that mainly these two proline-rich motifs govern the intramolecular interacting region (Supplementary Fig. 19).
To further confirm this analysis, we titrated SF1WWbs and the mutant version of the N-ext-WW12 construct (changing the PPVP/PALPP motifs for alanine residues).
PRPF40A isoform 1 sequences (N-ter 1–310, WW12short 141–223, WW12 141–236, WW12long 141–248, and N-ext-WW12 56–236) were amplified from a purchased DNA fragment (IDT) and cloned using NcoI and KpnI restriction sites into a pETM11 vector encoding 6xHis and TEV cleavage site as a N-terminal tag. SF1 (Pro A 410–468, Pro B 468–539, Pro C 539–594, Pro D 594–639, Pro BC 468–594, Pro CD 539–639, Pro BCD 468–639 and Pro ABCD 410–639) and SF3A1 (Middle Pro 364–413 and C-ter Pro 552–683) constructs were prepared in a similar manner using a pET24 vector with a 6xHis, GB1 and TEV cleavage site as N-terminal fusion cassette. 16-mer SF1 constructs (Table 1) and polyproline peptides (P6, P8, P10, P13, P16, P19, P22, P25, and P29) were cloned in the same pET24 vector with GB1 tag by direct ligation of purchased oligonucleotides (Eurofins). All peptide sequences contained N and C-terminal common residues to avoid boundary effects on binding: TEVsite-GAMSGS-peptide-SGSN. Mutants of PRPF40A WW12 and N-ext-WW12 constructs were prepared by site-directed mutagenesis. The truncated version of PRPF40A WW12 (141-217) was a gift from Dr. María Macías (IRB, Spain). All used oligonucleotides were purchased from Eurofins Genomics and are shown in Supplementary Table 6.
Experiments were conducted on a MicroCAl PEAQ-ITC (Malvern Instruments, UK) at 25 °C in 20 mM sodium phosphate pH 6.5 and 100 mM NaCl. PRPF40A was titrated into N-terminal GB1 tagged SF1 or polyproline constructs and vice versa with similar results. Protein concentrations in the cell were around 20–40 μM, while in the syringe ranged between 200 and 500 μM. Experiments were performed at least in duplicate with injections of 1.5 μL (0.4 μL for first point) separated by 150 s delays to recover thermal power baseline and continuous stirring in the cell (750 rpm) for correct mixing. The reference cell was filled with water in all experiments. Data were processed by removing the blank experiment (using digested GB1 fusion protein) and adjusted to one-site binding model with Malvern PEAQ-ITC Analysis software (Malvern Instruments, UK).

PRPF40A N-ext-WW12 = experiment: NMR titration (1H-15N and 1H-13C HSQC) of N-ext-WW12 with SF1 peptides; type: binding, human; details: NMR titration of N-ext-WW12, ratios 1:1 up to 1:4
Method: NMR samples were prepared at concentrations ranging 100–1000 μM in buffer containing 20 mM sodium phosphate pH 6.5, 100 mM NaCl, 1 mM DTT, and 10% or 100% D2O, and measured at 25 °C (except stated otherwise) in 900-, 800-, 600- and 500-MHz Bruker Avance III NMR spectrometers equipped with cryogenic triple resonance gradient probes. Topspin 4.1.0 (Bruker) software was used for NMR data acquisition. Spectra were processed with NMRpipe 8.9[76] and analyzed using ccpnNMR Analysis 2.5 software.
^15N-labeled PRPF40A proteins (WW1, WW2, WW12, and N-extWW12) at around 100 μM concentration were titrated with increasing concentration ratios of polyproline or SF1 peptides (GB1 tagged) until reaching saturation, when possible; ^1H-^15N HSQC experiments and in some cases ^1H-^13C HSQC experiments (using double-labeled PRPF40A proteins) were acquired at each titration point. The chemical shift perturbation (CSP) was weighted using the Eqs. (1) and (2)[89].1 CSP(HN)=0.5⋅ΔδH2+0.14⋅ΔδN2 2 CSP(HC)=0.5⋅ΔδH2+0.3⋅ΔδC2

## PPLPPGAPPPPPPPPP [SF1WWbs]
PRPF40A Mut N-ExtWW12; ITC as E10
  N (sites): 0.84 ± 0.05 sites
PRPF40A Mut N-ExtWW12; ITC binding enthalpy, as E10
  DH: -21 ± 2.2 kcal/mol
PRPF40A Mut N-ExtWW12; ITC, 25 °C, 20 mM sodium phosphate pH 6.5, 100 mM NaCl, GB1-tagged SF1 16-mer, N-ext-WW12 with PPVP/PALPP changed to alanine, at least duplicates
  Kd (µM): comparable to the isolated WW tandem
PRPF40A Mut N-ExtWW12; ITC, 25 °C, 20 mM sodium phosphate pH 6.5, 100 mM NaCl, GB1-tagged SF1 16-mer, N-ext-WW12 with PPVP/PALPP changed to alanine, at least duplicates, read-out: Kd
  Kd: 2210 ± 240 nM
PRPF40A Mut N-ExtWW12; ITC, individual value 1 (replicate 1), read-out: Kd Values with Nter Ext WW12 MUTANT, individual value
  Kd: 2440 nM
PRPF40A Mut N-ExtWW12; ITC, individual value 2 (replicate 2), read-out: Kd Values with Nter Ext WW12 MUTANT, individual value
  Kd: 1980 nM
PRPF40A N-ext-WW12
  displacement of the intramolecular N-terminal motifs (methyl signals Val 80, Val 129): able to displace the intramolecular interaction

Reference: publication PMC11079029, “Intramolecular autoinhibition regulates the selectivity of PRPF40A tandem WW domains for proline-rich motifs” (Nature Communications, 2024)
